# Results reported in patent publication US10093664B2, “Bicyclo[1.1.1]pentane inhibitors of dual leucine zipper (DLK) kinase for the treatment of disease” (priority 2016, dated 2018).
# Legend:
# human DLK [1] = target: T1, human DLK (Homo sapiens (Human), UniProt Q12852); assay: biochemical; type: binding; settings: Table 2b DLK activity (global); read-out: Kd
# Description: The DLK dissociation constants (Kd) have been determined in the KINOMEscan KdELECT Service at DiscoveRx.
# A fusion protein of full length of human DLK (amino acids 1-859) and the DNA binding domain of NFkB was expressed in transiently transfected HEK293 cells. From these HEK 293 cells, extracts were prepared in M-PER extraction buffer (Pierce) in the presence of Protease Inhibitor Cocktail Complete (Roche) and Phosphatase Inhibitor Cocktail Set II (Merck) per manufacturers' instructions. The DLK fusion protein was labeled with a chimeric double-stranded DNA tag containing the NFkB binding site (5′-[sequence]-3′) fused to an amplicon for qPCR readout, which was added directly to the expression extract (the final concentration of DNA-tag in the binding reaction is 0.1 nM).
# The liganded beads were blocked with excess biotin and washed with blocking buffer (SeaBlock (Pierce), 1% BSA, 0.05% Tween 20, 1 mM DTT) to remove unbound ligand and to reduce nonspecific binding.
# Extracts were used directly in binding assays without any enzyme purification steps at a ≥10,000-fold overall stock dilution (final DNA-tagged enzyme concentration <0.1 nM). Extracts were loaded with DNA-tag and diluted into the binding reaction in a two step process. First extracts were diluted 1:100 in 1× binding buffer (PBS/0.05% Tween 20/10 mM DTT/0.1% BSA/2 μg/ml sonicated salmon sperm DNA) containing 10 nM DNA-tag. This dilution was allowed to equilibrate at room temperature for 15 minutes and then subsequently diluted 1:100 in 1× binding buffer. Test compounds were prepared as 111× stocks in 100% DMSO. Kds were determined using an 11-point 3-fold compound dilution series with three DMSO control points. […] The compounds were then diluted directly into the assays such that the final concentration of DMSO was 0.9%. All reactions performed in polypropylene 384-well plates. Each was a final volume of 0.02 mL. Assays were incubated with shaking for 1 hour at room temperature. Then the beads were pelleted and washed with wash buffer (1×PBS, 0.05% Tween 20) to remove displaced kinase and test compound. […] The kinase concentration in the eluates was measured by qPCR. qPCR reactions were assembled by adding 2.5 μL of kinase eluate to 7.5 μL of qPCR master mix containing 0.15 μM amplicon primers and 0.15 μM amplicon probe. The qPCR protocol consisted of a 10 minute hot start at 95° C., followed by 35 cycles of 95° C. for 15 seconds, 60° C. for 1 minute.
# Test compounds were prepared as 11× stocks in 100% DMSO. Kds were determined using an 11-point 3-fold compound dilution series with three DMSO control points. […] The compounds were then diluted directly into the assays such that the final concentration of DMSO was 0.9%. The Kds were determined using a compound top concentration of 30,000 nM. Kd measurements were performed in duplicate.
# Binding constants (Kds) were calculated with a standard dose-response curve using the Hill equation:
# The Hill Slope was set to −1.
# human DLK [2] = target: T1, human DLK; assay: cell-based; settings: Table 2b (global); additional assay runs on multiple batches, includes Table 2a data in the averaging; p-cJun (Ser63), HEK293; read-out: Cell IC50
# Description: HEK293 cells stably transfected with a Dox-inducible human DLK were plated into a 384-well plate in 20 μl (40,000 cells/well) of DMEM medium (without phenol red) containing 10% fetal bovine serum, 1.5 μg/ml doxycycline and 1 μg/ml puromycin. The cells as negative control were grown in the absence of doxycycline. The plate was incubated at 37° C., 5% CO2 for 20 h, before DMSO (control) or compounds diluted in medium were added. The cells were incubated at 37° C. for an additional 5 h, followed by lysis and the addition detection antibodies from p-cJun (Ser63) cellular assay kit (Cisbio) per manufacturer protocol. The standard dose response curves were fitted by Genedata Screener software using the variable-slope model: Signal=Signalnegative control+(SignalDMSO control−Signalnegative control)/(1+(IC50/Dose)^Hill slope). Only signal and dose in the equation were treated as known values.
smiles,measurement,setting,value
"CCC(C)c1nc(-c2cnc(N)c(OC(F)F)c2)cn1C12CC(N3CCOCC3)(C1)C2 (stereo not shown) [Example 51, 5-(2-(sec-butyl)-1-(3-morpholinobicyclo[1.1.1]pentan-1-yl)-1H-imidazol-4-yl)-3-(difluoromethoxy)pyridin-2-amine]",Kd,human DLK [1],0.021 µM
same,IC50,human DLK [2],0.763 µM
"CC(C)c1nc(-c2cnc(N)c(C(F)(F)F)c2)cn1C12CC(C1)C2 [Example 52, 5-(1-(bicyclo[1.1.1]pentan-1-yl)-2-isopropyl-1H-imidazol-4-yl)-3-(trifluoromethyl)pyridin-2-amine]",Kd,human DLK [1],0.049 µM
same,IC50,human DLK [2],0.85 µM
"CCC(O)c1nc(-c2cnc(N)c(OC(F)(F)F)c2)cn1C12CC(C1)C2 (stereo not shown) [Example 54, 1-(4-(6-amino-5-(trifluoromethoxy)pyridin-3-yl)-1-(bicyclo[1.1.1]pentan-1-yl)-1H-imidazol-2-yl)propan-1-ol]",Kd,human DLK [1],0.011 µM
same,IC50,human DLK [2],0.319 µM
"CC(O)c1nc(-c2cnc(N)c(OC(F)(F)F)c2)cn1C12CC(C1)C2 (stereo not shown) [Example 55, 1-(4-(6-amino-5-(trifluoromethoxy)pyridin-3-yl)-1-(bicyclo[1.1.1]pentan-1-yl)-1H-imidazol-2-yl)ethan-1-ol]",Kd,human DLK [1],0.014 µM
same,IC50,human DLK [2],0.443 µM
"Nc1ncc(-c2cn(C34CC(C3)C4)c(C(O)C3CC3)n2)cc1OC(F)(F)F (stereo not shown) [Example 56, (4-(6-amino-5-(trifluoromethoxy)pyridin-3-yl)-1-(bicyclo[1.1.1]pentan-1-yl)-1H-imidazol-2-yl)(cyclopropyl)methanol]",Kd,human DLK [1],0.0051 µM
same,IC50,human DLK [2],0.275 µM
"CC(C)C(O)c1nc(-c2cnc(N)c(OC(F)(F)F)c2)cn1C12CC(C1)C2 (stereo not shown) [Example 57, 1-(4-(6-amino-5-(trifluoromethoxy)pyridin-3-yl)-1-(bicyclo[1.1.1]pentan-1-yl)-1H-imidazol-2-yl)-2-methylpropan-1-ol]",Kd,human DLK [1],0.00062 µM
same,IC50,human DLK [2],0.0386 µM
"Nc1ncc(-c2cn(C34CC(C3)C4)c(CO)n2)cc1C(F)(F)F [Example 58, (4-(6-amino-5-(trifluoromethyl)pyridin-3-yl)-1-(bicyclo[1.1.1]pentan-1-yl)-1H-imidazol-2-yl)methanol]",Kd,human DLK [1],0.018 µM
same,IC50,human DLK [2],0.846 µM
"CC(C)C(O)c1nc(-c2cnc(N)c(C(F)(F)F)c2)cn1C12CC(C1)C2 (stereo not shown) [Example 59, 1-(4-(6-amino-5-(trifluoromethyl)pyridin-3-yl)-1-(bicyclo[1.1.1]pentan-1-yl)-1H-imidazol-2-yl)-2-methylpropan-1-ol]",Kd,human DLK [1],0.00029 µM
same,IC50,human DLK [2],0.0209 µM
"CCC(O)c1nc(-c2cnc(N)c(C(F)(F)F)c2)cn1C12CC(C1)C2 (stereo not shown) [Example 61, 1-(4-(6-amino-5-(trifluoromethyl)pyridin-3-yl)-1-(bicyclo[1.1.1]pentan-1-yl)-1H-imidazol-2-yl)propan-1-ol]",Kd,human DLK [1],0.0021 µM
same,IC50,human DLK [2],0.167 µM
"Nc1ncc(-c2cn(C34CC(N5CCOCC5)(C3)C4)c(C=O)n2)cc1OC(F)(F)F [Example 66, 4-(6-amino-5-(trifluoromethoxy)pyridin-3-yl)-1-(3-morpholinobicyclo[1.1.1]pentan-1-yl)-1H-imidazole-2-carbaldehyde]",Kd,human DLK [1],0.044 µM
same,IC50,human DLK [2],1.4 µM
"CN1CCN(C23CC(n4cc(-c5cnc(N)c(OC(F)(F)F)c5)nc4CC4CC4)(C2)C3)CC1 [Example 72, 5-(2-(cyclopropylmethyl)-1-(3-(4-methylpiperazin-1-yl)bicyclo[1.1.1]pentan-1-yl)-1H-imidazol-4-yl)-3-(trifluoromethoxy)pyridin-2-amine]",Kd,human DLK [1],0.019 µM
same,IC50,human DLK [2],1.16 µM
"CN1CCN(C23CC(n4cc(-c5cnc(N)c(OC(F)F)c5)nc4CC4CC4)(C2)C3)CC1 [Example 73, 5-(2-(cyclopropylmethyl)-1-(3-(4-methylpiperazin-1-yl)bicyclo[1.1.1]pentan-1-yl)-1H-imidazol-4-yl)-3-(difluoromethoxy)pyridin-2-amine]",Kd,human DLK [1],0.018 µM
same,IC50,human DLK [2],0.624 µM
"CC(C)c1nc(-c2cnc(N)c(OC(F)(F)F)c2)cn1C12CC(N3CCN(C)CC3)(C1)C2 [Example 74, 5-(2-isopropyl-1-(3-(4-methylpiperazin-1-yl)bicyclo[1.1.1]pentan-1-yl)-1H-imidazol-4-yl)-3-(trifluoromethoxy)pyridin-2-amine]",Kd,human DLK [1],0.0045 µM
same,IC50,human DLK [2],0.196 µM
"CN1CCN(C23CC(n4cc(-c5cnc(N)c(C(F)(F)F)c5)nc4C4CC4)(C2)C3)CC1 [Example 75, 5-(2-cyclopropyl-1-(3-(4-methylpiperazin-1-yl)bicyclo[1.1.1]pentan-1-yl)-1H-imidazol-4-yl)-3-(trifluoromethyl)pyridin-2-amine]",Kd,human DLK [1],0.0075 µM
same,IC50,human DLK [2],0.256 µM
